Assay results reported in patent US5733912A, “7A-heterocycle substituted hexahydro-1H-pyrrolizine compounds useful in controlling chemical synaptic transmission” (Abbott Laboratories, priority 1997, dated 1998).
Counter-ions that a name gives are not always drawn.

Key:
[1] = test system: neuronal nicotinic acetylcholine receptors; assay: 86Rb+ efflux assay in IMR-32 human neuroblastoma cells (activation or inhibition of neuronal nicotinic acetylcholine receptors); format: cell-based; settings: for IMR-32 % response (conc.): relative to the response elicited by 100 μM (S)-nicotine; for IMR-32 % Inhibition (conc.): inhibition of the efflux elicited by 100 μM (S)-nicotine
Method: Cells of the IMR-32 human neuroblastoma clonal cell line (ATCC, Rockville, Md.) were maintained in a log phase of growth according to established procedures (Lukas, 1993). Experimental cells were seeded at a density of 500,000 cells/mL into a 24-well tissue culture dish. Plated cells were allowed to proliferate for at least 48 hours before loading with 2 μCi/mL of ^86 Rb^+ (35 Ci/mmol) overnight at 37° C. The ^86 Rb^+ efflux assays were performed according to previously published protocols (Lukas, R. J., J. Pharmacol. Exp. Ther., 265: 294-302, 1993) except serum-free Dulbecco's Modified Eagle's Medium was used during the ^86 Rb^+ loading, rinsing, and agonist-inducedefflux steps.
Responses (reported as percent relative to the response elicited by 100 μM (S)-nicotine) are shown for the indicated concentrations of selected compounds of the invention. The inhibition data (given for other selected compounds) reflect inhibition of the efflux elicited by 100 μM (S)-nicotine at the indicated concentration. […] This finding is in agreement with the results of others who have linked dopamine release, which is dependent upon the ion flux in synaptic transmission, to binding at nicotinic receptors (cf., for example, Lippiello and Caldwell, U.S. Pat. No. 5,242,935, issued Sep. 7, 1993; Caldwell and Lippiello, U.S. Pat. No. 5,248,690, issued Sep. 28, 1993; and Wonnacott et al., Prog. Brain Res., 79: 157-163 (1989)).

[2] = target: neuronal nicotinic acetylcholine receptors; assay: Displacement of [3H]-cytisine from nicotinic acetylcholine receptors, crude synaptic membrane preparations from whole rat brain; settings: [3H]-cytisine 1.25 nM, whole rat brain membranes, 60 minutes at 4° C.; IC50 converted to Ki by Cheng and Prusoff; read-out: Binding to Neuronal Nicotinic Acetylcholine Receptors (Binding)
Method: For the purpose of identifying compounds as cholinergic agents which are capable of interacting with nicotinic acetylcholine receptors in the brain, a ligand-receptor binding assay was carried out as the initial screen. Compounds of the present invention were effective at interacting with neuronal nicotinic acetylcholine receptors as assayed for their ability to displace radioligand from neuronal nicotinic acetylcholine channel receptors labeled with [^3 H]-cytisine ([^3 H]-CYT).
Displacement of [^3 H]-CYT from nicotinic acetylcholine receptors was determined using crude synaptic membrane preparations from whole rat brain (Pabreza et al., Molecular Pharmacol., 1990, 39: 9). Washed membranes were stored at -80° C. prior to use. Frozen aliquots were slowly thawed and resuspended in 20 volumes of buffer (containing: 120 mM NaCl, 5 mM KCl, 2 mM MgCl2, 2 mM CaCl2 and 50 mM Tris-Cl, pH 7.4 @4° C.). After centrifuging at 20,000×g for 15 minutes, the pellets were resuspended in 30 volumes of buffer. Homogenate (containing 125-150 μg protein) was added to triplicate tubes containing concentrations of test compound and [^3 H]-CYT (1.25 nM) in a final volume of 500 μL. Samples were incubated for 60 minutes at 4° C., then rapidly filtered through Whatman GF/B filters presoaked in 0.5% polyethylimine using 3×4 mL of ice-cold buffer. The filters are counted in 4 mL of Ecolume® (ICN). Nonspecific binding was determined in the presence of 10 μM (-)-nicotine and values were expressed as a percentage of total binding.

Structure (SMILES) | IMR-32 % response (conc.) ([1]; 10 μM) | Ki [2] | IMR-32 % response (conc.) ([1]; 1 μM) | IMR-32 % response (conc.) ([1]; 100 μM) | IMR-32 % Inhibition (conc.) ([1]; 10 μM)
Cc1cc(C23CCCN2CCC3)on1.Cl [Example 1, 7a-(3-methyl-5-isoxazolyl)-hexahydro-1H-pyrrolizine hydrochloride] | 110% | 0.97 nM | – | – | –
Cc1cc(C23CCCN2CCC3)[nH]n1 [Example 2, 7a-(1H-3-methyl-5-pyrazolyl)-hexahydro-1H-pyrrolizine dihydrochloride] | – | 70 nM | – | – | –
Cl.c1cncc(C23CCCN2CCC3)c1 [Example 3, 7a-(3-pyridinyl)-hexahydro-1H-pyrrolizine hydrochloride] | 71% | 0.38 nM | – | – | –
Cl.Cl.c1ccc2ncc(C34CCCN3CCC4)cc2c1 [Example 4, 7a-(3-quinolinyl)-hexahydro-1H-pyrrolizine dihydrochloride] | 40% | 4.3 nM | – | – | –
Cl.Clc1ccc(C23CCCN2CCC3)cn1 [Example 5, 7a-(6-chloro-3-pyridinyl)-hexahydro-1H-pyrrolizine hydrochloride] | – | 0.1 nM | 82% | – | –
Fc1ncccc1C12CCCN1CCC2 [Example 6, 7a-(2-fluoro-3-pyridinyl)-hexahydro-1H-pyrrolizine hydrochloride salt] | – | 5.7 nM | – | – | –
Clc1ncccc1C12CCCN1CCC2 [Example 7, 7a-(2-chloro-3-pyridinyl)-hexahydro-1H-pyrrolizine hydrochloride] | – | 436 nM | – | – | –
Cl.Clc1cc(C23CCCN2CCC3)cnc1Cl [Example 8, 7a-(5,6-dichloro-3-pyridinyl)-hexahydro-1H-pyrrolizine hydrochloride] | – | 0.055 nM | 71% | – | –
Cl.c1ncc(C23CCCN2CCC3)cn1 [Example 9, 7a-(5-pyrimidinyl)-hexahydro-1H-pyrrolizine hydrochloride] | – | 3.7 nM | – | 39% | –
Cl.Fc1ccc(C23CCCN2CCC3)c(F)n1 [Example 10, 7a-(2,6-difluoro-3-pyridinyl)-hexahydro-1H-pyrrolizine hydrochloride] | 13% | 2.9 nM | – | – | 12%
Clc1ccc(C23CCCN2CCC3)c(Cl)n1 [Example 11, 7a-(2,6-dichloro-3-pyridinyl)-hexahydro-1H-pyrrolizine hydrochloride salt] | – | 1420 nM | – | – | –
Cl.Fc1ccc(C23CCCN2CCC3)cn1 [Example 12, 7a-(6-fluoro-3-pyridinyl)-hexahydro-1H-pyrrolizine hydrochloride salt] | 93% | 0.27 nM | – | – | –
CCc1cc(C23CCCN2CCC3)on1.Cl [Example 13, 7a-(3-ethyl-5-isoxazolyl)-hexahydro-1H-pyrrolizine hydrochloride salt] | – | 1.4 nM | – | 108% | –
CCCc1cc(C23CCCN2CCC3)on1.Cl [Example 14, 7a-(3-propyl-5-isoxazolyl)-hexahydro-1H-pyrrolizine hydrochloride salt] | – | 1.7 nM | – | 74% | –
c1ccc(Cc2cc(C34CCCN3CCC4)on2)cc1 [Example 15, 7a-(3-benzyl-5-isoxazolyl)-hexahydro-1H-pyrrolizine hydrochloride salt] | – | 4 nM | – | – | –
Cl.Oc1cncc(C23CCCN2CCC3)c1 [Example 16, 7a-(3-hydroxy-5-pyridinyl)-hexahydro-1H-pyrrolizine hydrochloride salt] | – | 1.4 nM | – | 53% | –
c1ccc(COc2cncc(C34CCCN3CCC4)c2)cc1 [Example 16b, 7a-(3-benzyloxy-5-pyridinyl)-hexahydro-1H-pyrrolizine] | – | 0.27 nM | – | – | –
Brc1cncc(C23CCCN2CCC3)c1.Cl [Example 17, 7a-(5-bromo-3-pyridinyl)-hexahydro-1H-pyrrolizine hydrochloride salt] | 41% | 0.61 nM | – | – | –
Cc1cc(C23CCCN2CCC3)cnc1F.Cl [Example 18, 7a-(6-fluoro-5-methyl-3-pyridinyl)hexahydro-1H-pyrrolizine hydrochloride salt] | 66% | 0.11 nM | – | – | –
Cc1cc(C23CCCN2CCC3)cnc1Cl.Cl [Example 19, 7a-(6-chloro-5-methyl-3-pyridinyl)-hexahydro-1H-pyrrolizine hydrochloride salt] | – | 0.05 nM | 91% | – | –
Cc1ccc(C23CCCN2CCC3)cn1.Cl [Example 20, 7a-(6-methyl-3-pyridinyl)-hexahydro-1H-pyrrolizine hydrochloride salt] | – | 0.56 nM | 98% | – | –
Cc1cncc(C23CCCN2CCC3)c1.Cl [Example 21, 7a-(5-methyl-3-pyridinyl)-hexahydro-1H-pyrrolizine hydrochloride salt] | – | 0.33 nM | 56% | – | –
Cl.Fc1ncc(C23CCCN2CCC3)cc1Br [Example 22, 7a-(5-bromo-6-fluoro-3-pyridinyl)-hexahydro-1H-pyrrolizine hydrochloride salt] | 42% | 0.22 nM | – | – | –
Cl.Fc1ncc(C23CCCN2CCC3)cc1Cl [Example 23, 7a-(5-chloro-6-fluoro-3-pyridinyl)-hexahydro-1H-pyrrolizine hydrochloride salt] | 68% | 0.23 nM | – | – | –
Cc1ccncc1C12CCCN1CCC2.Cl [Example 24, 7a-(4-methyl-3-pyridinyl)-hexahydro-1H-pyrrolizine hydrochloride salt] | – | 72 nM | – | 0% | 14%
c1ccc(-c2cncc(C34CCCN3CCC4)c2)cc1 [Example 25, 7a-(5-phenyl-3-pyridinyl)-hexahydro-1H-pyrrolizine hydrochloride salt] | – | 0.25 nM | – | – | –
